Experimental data from article PMC12062478, “Screening herbal and natural product libraries to aid discovery of novel allosteric modulators of human P2X7” (Purinergic Signalling, 2024).

Tests used:
[1] = test system: HEK-293 cells; assay: Cell viability assay (AlamarBlue) in non-transfected HEK-293 cells; type: cell-based, human; conditions: 10 µM, 24 h
Experimental: Cells were plated at 2 × 10^4 cells/well in Nunc 96-well plates (Fisher Scientific #167-008) 24 h prior to stimulation with ATP 500 µM or 3 mM in combination with identified positive or negative crude plant extracts, respectively, or with purified compounds (10 µM) for 24 h. Following incubation, resazurin (0.1 mg/mL in PBS, Sigma-Aldrich) was added to cells for 2 h at 37 °C and fluorescence was measured on a Flexstation 3 plate reader (excitation 570 nm; emission 600 nm).
(§1) Fig. 6 Dioscin enhances P2X7-dependent pore formation and potentiates channel opening. A Dioscorea nipponica (organic) plant extract (30 µg/mL) increased ATP-dependent YO-PRO-1 iodide uptake. AZ10606120 (10 µM, grey bars) was added to block hP2X7. B YO-PRO-1 uptake following a co-stimulation of HEK-hP2X7 cells with 200 µM ATP ± the named compounds in the presence or absence of AZ10606120. YO-PRO-1 uptake was quantified between 50 and 300 s (n = 5). C Whole-cell patch-clamp recordings were performed at room temperature. Cells were voltage-clamped at − 60 mV, and responses to a 5-s stimulation of ATP (100 µM) followed by a 5-s stimulation of ATP (100 µM) + dioscin/diosgenin (10 µM) were measured from HEK-hP2X7 cells. Representative traces are shown. D Summary of normalised current amplitudes represented as a fold change compared to ATP responses in the absence of dioscin/diosgenin (n = 10–18 cells). […]

[2] = molecular target: T1, hP2X7 (Homo sapiens, UniProt Q99572); assay: Whole-cell patch-clamp electrophysiology in HEK-hP2X7 cells; type: cell-based
T1 sequence (Q99572 1-595): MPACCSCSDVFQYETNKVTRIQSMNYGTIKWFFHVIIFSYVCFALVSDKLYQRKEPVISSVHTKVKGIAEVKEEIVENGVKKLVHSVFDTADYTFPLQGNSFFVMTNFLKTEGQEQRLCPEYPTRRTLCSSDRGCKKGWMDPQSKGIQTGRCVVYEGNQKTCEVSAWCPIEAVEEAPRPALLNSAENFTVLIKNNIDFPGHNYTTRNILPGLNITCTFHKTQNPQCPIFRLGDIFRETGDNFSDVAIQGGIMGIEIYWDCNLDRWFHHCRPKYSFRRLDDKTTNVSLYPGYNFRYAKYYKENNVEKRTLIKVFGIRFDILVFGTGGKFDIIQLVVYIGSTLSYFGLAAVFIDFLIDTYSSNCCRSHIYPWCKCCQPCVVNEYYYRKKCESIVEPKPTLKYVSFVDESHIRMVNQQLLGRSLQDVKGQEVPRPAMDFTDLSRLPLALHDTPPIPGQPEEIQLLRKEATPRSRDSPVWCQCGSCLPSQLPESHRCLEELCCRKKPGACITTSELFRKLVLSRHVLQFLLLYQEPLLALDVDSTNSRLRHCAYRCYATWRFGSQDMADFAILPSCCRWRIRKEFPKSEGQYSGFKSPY
Experimental: Stably expressing HEK-hP2X7 cells were plated onto 13-mm glass coverslips 24 h prior to use. Membrane currents were recorded in the whole-cell patch-clamp configuration using an EPC10 amplifier (HEKA Elektronik) and borosilicate glass electrodes (TF-150 World Precision Instruments), resistance […] when filled with standard internal solution (145 mM NaCl, 10 mM HEPES, 10 mM EGTA, pH 7.3). Cells were voltage-clamped at − 60 mV, and dialysis of intracellular contents was performed for 1 min prior to experimental procedures. Cells were continuously perfused by gravity feed with standard divalent buffer solution (145 mM NaCl, 5 mM KCl, 2 mM CaCl2, 1 mM MgCl2, 13 mM glucose, 10 mM HEPES, pH 7.3) prior to seal formation, and low divalent buffer solution was used for agonist and PAM application. Agonists were applied using a computer-controlled fast-flow system (RSC-160; Bio-Logic Scientific Instruments) with the perfusion capillaries placed in close proximity to the cell under investigation.
as §1, with “cells). E Concentration response to ATP in the presence of dioscin (10 µM, green) or vehicle (DMSO, black) using YO-PRO-1 uptake assay in HEK-hP2X7 and F HEK-293 cells.” for “cells).”

[3] = molecular target: T2, P2X7 (Homo sapiens, UniProt Q99572); assay: ATP-induced YO-PRO-1 dye uptake in HEK-hP2X7 cells; type: cell-based
T2 construct: expressed in transfected cells
T2 sequence (Q99572 1-595): T1 sequence (Q99572 1-595)
Experimental: HEK-hP2X7 or HEK-hP2X4 cells were plated at 2.5 × 10^4 cells per well (100 µL volume) the day before experiments into poly-D-lysine (Merck Millipore) coated 96-well plates (NUNC, Fisher Scientific #167-008). The membrane impermeant dye YO-PRO-1 iodide (Life Technologies, Fisher Scientific) was used at a final concentration of 2 µM in low divalent buffer (145 mM NaCl, 5 mM KCl, 0.2 mM CaCl2, 13 mM glucose, 10 mM HEPES, pH 7.3, osm 300–310). Media were removed from the plate, and 90 µL of YO-PRO-1 buffer was added per well. Plates were warmed to 37 °C for 5 min before recording. Data was acquired on a Flexstation 3 plate reader (Molecular Devices) using excitation wavelength 490 nm, emission wavelength 520 nm, and six reads per well (PMT medium). […] […] Pipette height was set to 80 µL and the rate of injection was 4.
YO-PRO-1 dye uptake assay data is plotted as a percentage of control where control responses are measured in the absence of plant extract. Cell viability data is plotted as a percentage of control or background-corrected fluorescence data. Concentration–response graphs were plotted using GraphPad Prism v6 with a non-linear regression fit (variable slope). IC50 values were generated from collated datasets from a minimum of three independent experiments. Statistical differences were determined by one-way ANOVA statistical tests performed using GraphPad Prism v6 with Dunnett’s multiple comparison post hoc test. Significance was taken as P ≤ 0.05.
We acquired a natural product library (Set IV) containing 419 compounds from NCI DTP and tested these on P2X7 responses using a YO-PRO-1 dye uptake in HEK293 cells stably expressing human P2X7 (HEK-hP2X7). […] This allowed us to assess for any immediate effect of the injected compound, and secondly, it allowed for any potential negative modulators to be pre-incubated with P2X7.

[4] = test system: non-transfected HEK-293 cells; assay: YO-PRO-1 dye uptake in non-transfected HEK-293 cells; type: cell-based, human; conditions: 10 µM, in the presence of ATP
Experimental: HEK-hP2X7 or HEK-hP2X4 cells were plated at 2.5 × 10^4 cells per well (100 µL volume) the day before experiments into poly-D-lysine (Merck Millipore) coated 96-well plates (NUNC, Fisher Scientific #167-008). The membrane impermeant dye YO-PRO-1 iodide (Life Technologies, Fisher Scientific) was used at a final concentration of 2 µM in low divalent buffer (145 mM NaCl, 5 mM KCl, 0.2 mM CaCl2, 13 mM glucose, 10 mM HEPES, pH 7.3, osm 300–310). Media were removed from the plate, and 90 µL of YO-PRO-1 buffer was added per well. Plates were warmed to 37 °C for 5 min before recording. Data was acquired on a Flexstation 3 plate reader (Molecular Devices) using excitation wavelength 490 nm, emission wavelength 520 nm, and six reads per well (PMT medium). Compounds or plant extracts at 10X final concentration were automatically injected at 30 s, and then, ATP was automatically injected at 90 s from a 96-well V-bottomed drug plate (Greiner). This enabled cells to be pre-treated with compounds/plant extracts for 60 s before the agonist was injected. […]
Fig. 6 Dioscin enhances P2X7-dependent pore formation and potentiates channel opening. […] YO-PRO-1 uptake was quantified between 50 and 300 s (n = 5). […] Cells were voltage-clamped at − 60 mV, and responses to a 5-s stimulation of ATP (100 µM) followed by a 5-s stimulation of ATP (100 µM) + dioscin/diosgenin (10 µM) were measured from HEK-hP2X7 cells. […]

[5] = test system: HEK293 cells; assay: Propidium iodide staining of HEK293 cells (membrane permeabilisation); type: cell-based, human
Experimental: Fig. 6 Dioscin enhances P2X7-dependent pore formation and potentiates channel opening. A Dioscorea nipponica (organic) plant extract (30 µg/mL) increased ATP-dependent YO-PRO-1 iodide uptake. AZ10606120 (10 µM, grey bars) was added to block hP2X7. B YO-PRO-1 uptake following a co-stimulation of HEK-hP2X7 cells with 200 µM ATP ± the named compounds in the presence or absence of AZ10606120. YO-PRO-1 uptake was quantified between 50 and 300 s (n = 5). C Whole-cell patch-clamp recordings were performed at room temperature. Cells were voltage-clamped at − 60 mV, and responses to a 5-s stimulation of ATP (100 µM) followed by a 5-s stimulation of ATP (100 µM) + dioscin/diosgenin (10 µM) were measured from HEK-hP2X7 cells. Representative traces are shown. D Summary of normalised current amplitudes represented as a fold change compared to ATP responses in the absence of dioscin/diosgenin (n = 10–18 cells). E Concentration response to ATP in the presence of dioscin (10 µM, green) or vehicle (DMSO, black) using YO-PRO-1 uptake assay in HEK-hP2X7 and F HEK-293 cells. […] H HEK-293 cells were treated with dioscin or CK (10 µM) for 10 min and stained with propidium iodide to reveal permeabilised cells. Images taken with EVOS microscope

[6] = Cytotoxicity of purified glycoside (data not shown); type: cell-based

C[C@@H]1CC[C@@]2(OC1)O[C@H]1C[C@H]3[C@@H]4CC=C5C[C@@H](O[C@@H]6O[C@H](CO)[C@@H](O[C@@H]7O[C@@H](C)[C@H](O)[C@@H](O)[C@H]7O)[C@H](O)[C@H]6O[C@@H]6O[C@@H](C)[C@H](O)[C@@H](O)[C@H]6O)CC[C@]5(C)[C@H]4CC[C@]3(C)[C@H]1[C@@H]2C [Dioscin, dioscin]
Cell death in non-transfected HEK-293 cells [1]: induce cell death
Potentiation of hP2X7 ion channel opening ([2]; 10 µM with ATP 100 µM, 5-s application, −60 mV): could potentiate hP2X7 ion channel opening
Ion channel opening by compound alone ([2]; short 5-s application): not inducing ion channel opening itself
Sensitivity of the potentiated ATP response to P2X7 antagonist AZ10606120 ([3]; AZ10606120 10 µM): could be reduced with AZ10606120
Effect on YO-PRO-1 dye uptake with 200 µM ATP ([3]; co-stimulation with 200 µM ATP): able to enhance YO-PRO-1 dye uptake
Effect on ATP concentration–response curve ([3]; compound 10 µM): increase in the maximum response with no leftward shift
Effect on P2X7 responses ([3]; purified glycosides/aglycone from potentiating extracts): could effectively potentiate P2X7 responses
YO-PRO-1 dye uptake in non-transfected cells [4]: increase YO-PRO-1 dye uptake in non-transfected HEK-293 cells in the presence of ATP
Application time after which membrane permeabilisation was observed [5]: > 10 min
Propidium iodide staining ([5]; 10 µM, within 10 min of addition): induce propidium iodide staining

CC1(C)CC[C@]2(C(=O)O)CC[C@]3(C)C(=CC[C@@H]4[C@@]5(C)CC[C@H](O[C@@H]6O[C@H](C(=O)O)[C@@H](O)[C@H](O[C@@H]7OC[C@@H](O)[C@H](O)[C@H]7O)[C@H]6O)C(C)(C)[C@@H]5CC[C@]43C)[C@@H]2C1 [Momordin Ic, momordin Ic]
Cytotoxicity [6]: high level of cytotoxicity
